Results taken from patent US20250114357A1, “BIFUNCTIONAL PROTAC AND MOLECULAR GLUE COMPOUNDS AND METHODS OF USE THEREOF” (Biolexis Therapeutics, Inc., priority 2023, published 2025).

Each compound was assayed against T1, CDK9/CycT1 (Homo sapiens, UniProt P50750) (assay: ADP-Glo Kinase Assay). Conditions: Table 1; assay not given.
T1 construct: purchased SignalChem
T1 sequence (P50750 whole entry): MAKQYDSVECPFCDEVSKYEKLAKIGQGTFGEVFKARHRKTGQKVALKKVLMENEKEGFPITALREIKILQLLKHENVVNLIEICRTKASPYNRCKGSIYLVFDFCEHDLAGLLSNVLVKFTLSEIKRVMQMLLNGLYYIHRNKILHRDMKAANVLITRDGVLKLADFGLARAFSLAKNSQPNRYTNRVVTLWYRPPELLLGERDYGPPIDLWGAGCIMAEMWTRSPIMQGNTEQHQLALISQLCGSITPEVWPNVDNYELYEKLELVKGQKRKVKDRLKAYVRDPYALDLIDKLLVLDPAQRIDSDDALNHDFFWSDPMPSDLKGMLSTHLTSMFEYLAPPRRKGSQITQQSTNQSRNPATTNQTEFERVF
T1 sequence (O60563 whole entry partner): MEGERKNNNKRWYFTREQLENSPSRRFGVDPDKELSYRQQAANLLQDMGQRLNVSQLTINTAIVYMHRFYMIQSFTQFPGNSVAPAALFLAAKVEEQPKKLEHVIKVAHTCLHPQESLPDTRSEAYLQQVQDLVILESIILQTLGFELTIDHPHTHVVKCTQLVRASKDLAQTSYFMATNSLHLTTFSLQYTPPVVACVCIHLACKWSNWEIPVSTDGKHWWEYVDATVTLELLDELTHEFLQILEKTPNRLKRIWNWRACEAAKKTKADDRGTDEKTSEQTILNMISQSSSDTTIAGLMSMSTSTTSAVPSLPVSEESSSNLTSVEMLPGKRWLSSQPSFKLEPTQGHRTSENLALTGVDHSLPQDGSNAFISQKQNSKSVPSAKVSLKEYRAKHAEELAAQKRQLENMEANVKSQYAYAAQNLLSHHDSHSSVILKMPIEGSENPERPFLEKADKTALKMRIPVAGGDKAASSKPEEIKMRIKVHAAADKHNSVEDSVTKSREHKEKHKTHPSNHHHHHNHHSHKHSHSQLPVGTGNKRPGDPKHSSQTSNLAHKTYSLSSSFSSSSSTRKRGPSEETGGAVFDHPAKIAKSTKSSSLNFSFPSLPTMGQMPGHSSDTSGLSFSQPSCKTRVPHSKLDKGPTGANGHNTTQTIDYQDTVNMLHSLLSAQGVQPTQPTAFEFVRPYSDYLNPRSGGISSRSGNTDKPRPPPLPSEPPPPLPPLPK
Type: biochemical
Procedure: ADP-Glo assay kit is purchased from Promega and the CDK9/CycT1 protein and PDKtide substrate are purchased from SignalChem. Compounds of Structure (I) are dosed in 10-dose IC50 mode in duplicate with 3-fold serial dilution starting at 100 μM. The reaction is started by pre-incubating 4 μL of protein (20 nM), 2 μL of substrate (100 μM), and 2 μL of serial diluted drug in 1× assay buffer (50 mM HEPES, 3 mM MgCl2, 3 mM MnCl2, and 1 mM DTT) for 30 minutes. After pre-incubating, 4 μL of ATP (1 μM) is added to each well and incubated for an additional 90 minutes. The ADP-Glo Reagent (10 μL) and Kinase Detection Reagent (20 μL) are added to each well and incubated as recommended by Promega. The reaction is quantified by measuring luminescence and the IC50 is calculated using GraphPad Prism software.
Compound `CC(C)c1c2cc(-c3ccnc(N[C@H]4CC[C@H](NCCCCCc5cccc6c5CN(C5CCC(=O)NC5=O)C6=O)C4)n3)ccc2nn1C` (stereo partly drawn) [Compound I-1, 3-(4-(5-(((1S,3S)-3-((4-(3-isopropyl-2-methyl-2H-indazol-5-yl)pyrimidin-2-yl)amino)cyclopentyl)amino)pentyl)-1-oxoisoindolin-2-yl)piperidine-2,6-dione] has an IC50 of 5 to 1000 nM.
`CC(C)c1c2cc(-c3ccnc(N[C@H]4CC[C@H](NC(=O)N5CCN(CCCCCc6cccc7c6CN(C6CCC(=O)NC6=O)C7=O)CC5)C4)n3)ccc2nn1C` (stereo partly drawn) [Compound I-4, 4-(5-(2-(2,6-dioxopiperidin-3-yl)-1-oxoisoindolin-4-yl)pentyl)-N-((1S,3S)-3-((4-(3-isopropyl-2-methyl-2H-indazol-5-yl)pyrimidin-2-yl)amino)cyclopentyl)piperazine-1-carboxamide] gave an IC50 of no more than 5 nM.
Work on `CC(C)c1c2cc(-c3ccnc(N[C@H]4CC[C@H](NC(=O)N5CCN(CCCCCc6cccc7c6C(=O)N(C6CCC(=O)NC6=O)C7=O)CC5)C4)n3)ccc2nn1C` (stereo partly drawn) [Compound I-3, 4-(5-(2-(2,6-dioxopiperidin-3-yl)-1,3-dioxoisoindolin-4-yl)pentyl)-N-((1S,3S)-3-((4-(3-isopropyl-2-methyl-2H-indazol-5-yl)pyrimidin-2-yl)amino)cyclopentyl)piperazine-1-carboxamide] yielded an IC50 of no more than 5 nM.
For `CC(C)c1c2cc(-c3ccnc(N[C@H]4CC[C@H](NCc5cccc6c5C(=O)N(C5CCC(=O)NC5=O)C6=O)C4)n3)ccc2nn1C` (stereo partly drawn) [Compound I-7, 2-(2,6-dioxopiperidin-3-yl)-4-((((1S,3S)-3-((4-(3-isopropyl-2-methyl-2H-indazol-5-yl)pyrimidin-2-yl)amino)cyclopentyl)amino)methyl)isoindoline-1,3-dione], the IC50 was 5 to 1000 nM.
With `CC(C)c1c2cc(-c3ccnc(N[C@H]4CC[C@H](NC(=O)N5CCN(CCCCCc6ccc7c(c6)C(=O)N(C6CCC(=O)NC6=O)C7=O)CC5)C4)n3)cc(F)c2nn1C` (stereo partly drawn) [Compound I-5, 4-(5-(2-(2,6-dioxopiperidin-3-yl)-1,3-dioxoisoindolin-5-yl)pentyl)-N-((1S,3S)-3-((4-(7-fluoro-3-isopropyl-2-methyl-2H-indazol-5-yl)pyrimidin-2-yl)amino)cyclopentyl)piperazine-1-carboxamide] the IC50 was no more than 5 nM.
Work on `CC(C)c1c2cc(-c3ccnc(N[C@H]4CC[C@H](NC(=O)N5CCN(CCCCCc6ccc7c(c6)CN(C6CCC(=O)NC6=O)C7=O)CC5)C4)n3)cc(F)c2nn1C` (stereo partly drawn) [Compound I-6, 4-(5-(2-(2,6-dioxopiperidin-3-yl)-1-oxoisoindolin-5-yl)pentyl)-N-((1S,3S)-3-((4-(7-fluoro-3-isopropyl-2-methyl-2H-indazol-5-yl)pyrimidin-2-yl)amino)cyclopentyl)piperazine-1-carboxamide] yielded an IC50 of no more than 5 nM.
Work on `CC(C)c1c2cc(-c3ccnc(N[C@H]4CC[C@H](NCc5ccc(-c6ccccn6)cc5)C4)n3)cc(F)c2nn1C` [Compound I-12, (1S,3S)-N^1-(4-(7-fluoro-3-isopropyl-2-methyl-2H-indazol-5-yl)pyrimidin-2-yl)-N^3-(4-(pyridin-2-yl)benzyl)cyclopentane-1,3-diamine] yielded an IC50 of 5 to 1000 nM.
`CC(C)c1c2cc(-c3ccnc(N[C@H]4CC[C@H](NCc5ccc(-c6ccccn6)cc5)C4)n3)ccc2nn1C` [Compound I-11, (1S,3S)-N^1-(4-(3-isopropyl-2-methyl-2H-indazol-5-yl)pyrimidin-2-yl)-N^3-(4-(pyridin-2-yl)benzyl)cyclopentane-1,3-diamine] gave an IC50 of 5 to 1000 nM.
`CC(C)c1c2cc(-c3ccnc(N[C@H]4CC[C@H](NCCCCCc5cccc6c5C(=O)N(C5CCC(=O)NC5=O)C6=O)C4)n3)ccc2nn1C` (stereo partly drawn) [Compound I-2, 2-(2,6-dioxopiperidin-3-yl)-4-(5-(((1S,3S)-3-((4-(3-isopropyl-2-methyl-2H-indazol-5-yl)pyrimidin-2-yl)amino)cyclopentyl)amino)pentyl)isoindoline-1,3-dione] gave an IC50 of 5 to 1000 nM.
For `CC(C)c1c2cc(-c3ccnc(N[C@H]4CC[C@H](NCc5cccc6c5C(=O)N(C5CCC(=O)NC5=O)C6=O)C4)n3)cc(F)c2nn1C` (stereo partly drawn) [Compound I-9, 2-(2,6-dioxopiperidin-3-yl)-4-((((1S,3S)-3-((4-(7-fluoro-3-isopropyl-2-methyl-2H-indazol-5-yl)pyrimidin-2-yl)amino)cyclopentyl)amino)methyl)isoindoline-1,3-dione], the IC50 was 5 to 1000 nM.
`CC(C)c1c2cc(-c3ccnc(N[C@H]4CC[C@H](NCc5cccc6c5CN(C5CCC(=O)NC5=O)C6=O)C4)n3)cc(F)c2nn1C` (stereo partly drawn) [Compound I-10, 3-(4-((((1S,3S)-3-((4-(7-fluoro-3-isopropyl-2-methyl-2H-indazol-5-yl)pyrimidin-2-yl)amino)cyclopentyl)amino)methyl)-1-oxoisoindolin-2-yl)piperidine-2,6-dione] gave an IC50 of no more than 5 nM.
`CC(C)c1c2cc(-c3ccnc(N[C@H]4CC[C@H](NCc5cccc6c5CN(C5CCC(=O)NC5=O)C6=O)C4)n3)ccc2nn1C` (stereo partly drawn) [Compound I-8, 3-(4-((((1S,3S)-3-((4-(3-isopropyl-2-methyl-2H-indazol-5-yl)pyrimidin-2-yl)amino)cyclopentyl)amino)methyl)-1-oxoisoindolin-2-yl)piperidine-2,6-dione] showed an IC50 of no more than 5 nM.
